Measurements published in publication PMC11672294, “The Antipsychotic Drug Aripiprazole Suppresses Colorectal Cancer by Targeting LAMP2a to Induce RNH1/miR‐99a/mTOR‐Mediated Autophagy and Apoptosis” (Advanced Science, 2024).
Structures can show the parent of a compound that is named as a salt. Where two headings read alike, the source gives them in different places.

Test system: HT29
Conditions: 72 h, relative to DMSO, 10 µM
In short: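 HT29 viability used WST-1 reduction (2 h, 37 °C, A450) after 72 h of treatment; screening compounds were tested singly at 10 µM, with dimethyl sulfoxide as the comparison.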

Row | SMILES | Relative cell viability (%) [%] | Relative cell viability (%) (Relative cell viability (%)) [%]
1 | CCOc1nc2cccc(C(=O)O)c2n1Cc1ccc(-c2ccccc2-c2noc(=O)[nH]2)cc1 [Azilsartan] | 73.79 | –
2 | COc1c(N2CCNC(C)C2)c(F)cc2c(=O)c(C(=O)O)cn(C3CC3)c12 (stereo not drawn) [Gatifloxacin] | 96.11 | –
3 | CCOC(=O)C1=C[C@@H](OC(CC)CC)[C@H](NC(C)=O)[C@@H](N)C1 [Oseltamivir Phosphate] | 60.68 | –
4 | C=C1[C@H](CO)[C@@H](O)C[C@@H]1n1cnc2c(=O)[nH]c(N)nc21 [Entecavir Hydrate] | 99.22 | –
5 | CCOC(=O)[C@@H](N)Cc1ccc(-c2cc(O[C@H](c3ccc(Cl)cc3-n3ccc(C)n3)C(F)(F)F)nc(N)n2)cc1 [Telotristat Etiprate (LX 1606 Hippurate)] | 86.05 | –
6 | CC(=O)O[C@@]12CO[C@@H]1C[C@H](O)[C@@]1(C)C(=O)[C@H](O)C3=C(C)[C@@H](OC(=O)[C@H](O)[C@@H](NC(=O)OC(C)(C)C)c4ccccc4)C[C@@](O)([C@@H](OC(=O)c4ccccc4)[C@H]21)C3(C)C [Docetaxel Trihydrate] | 23.93 | –
7 | Nc1nc2c(ncn2CCC(CO)CO)c(=O)[nH]1 [Penciclovir] | 100.303 | –
8 | Cc1ccc([C@@H]2O[C@H](CO)[C@@H](O)[C@H](O)[C@H]2O)cc1Cc1ccc(-c2ccc(F)cc2)s1 [Canagliflozin] | 72.33 | –
9 | C[C@@H]1C[C@H]2[C@@H]3CCC4=CC(=O)C=C[C@]4(C)[C@@]3(Cl)[C@@H](O)C[C@]2(C)[C@@]1(OC(=O)c1ccco1)C(=O)CCl [Mometasone furoate] | 144.2 | –
10 | CCOC(=O)[C@H](CCc1ccccc1)N[C@H]1CCCN2CCC[C@@H](C(=O)O)N2C1=O [Cilazapril Monohydrate] | 112 | –
11 | CC(C)C[C@H](NC(=O)[C@H](CCc1ccccc1)NC(=O)CN1CCOCC1)C(=O)N[C@@H](Cc1ccccc1)C(=O)N[C@@H](CC(C)C)C(=O)[C@@]1(C)CO1 [Carfilzomib (PR-171)] | 15.53 | –
12 | O=C(O)Cc1ccccc1Nc1c(Cl)cccc1Cl [Diclofenac Diethylamine] | – | 60.68
13 | CNCCC(Oc1ccc(C(F)(F)F)cc1)c1ccccc1 (stereo not drawn) [Fluoxetine HCl] | 86.76 | –
14 | COC(=O)C1=C(C)NC(C)=C(C(=O)O[C@@H]2CCCN(Cc3ccccc3)C2)[C@@H]1c1cccc([N+](=O)[O-])c1 (racemic) [Benidipine HCl] | 75.78 | –
15 | Cc1c(F)cc(C(=O)NC2CC2)cc1-c1ccc(C(=O)NCC(C)(C)C)cn1 [Losmapimod (GW856553X)] | 94.44 | –
16 | CCOC(=O)C1=C(COCCN)NC(C)=C(C(=O)OC)C1c1ccccc1Cl (stereo not drawn) [Amlodipine besylate (Norvasc)] | – | 75.42
17 | CC(C)OC(=O)C(C)(C)Oc1ccc(C(=O)c2ccc(Cl)cc2)cc1 [Fenofibrate] | 74.15 | –
18 | N#C[C@@H]1C[C@@H]2C[C@@H]2N1C(=O)[C@@H](N)C12CC3CC(CC(O)(C3)C1)C2 [Saxagliptin hydrate] | 117.5 | –
19 | CC(C)(CO)[C@@H](O)C(=O)NCCCO [D panthenol] | 121.4 | –
20 | COCCOC(=O)C1=C(C)NC(C)=C(C(=O)OC(C)C)C1c1cccc([N+](=O)[O-])c1 (stereo not drawn) [Nimodipine] | 53.81 | –
21 | CC[C@H](C)C(=O)O[C@H]1C[C@@H](C)C=C2C=C[C@H](C)[C@H](CC[C@@H]3C[C@@H](O)CC(=O)O3)[C@H]21 [Lovastatin] | 169.7 | –

Row | SMILES | Relative cell viability (%) [%] | Relative cell viability (%) (Relative cell viability (%)) [%]
22 | Cn1c(COP(=O)(NCCBr)NCCBr)cnc1[N+](=O)[O-] [TH-302] | 83.98 | –
23 | COC(=O)N[C@H](C(=O)N1CC2(CC2)C[C@H]1c1ncc(-c2ccc3c(c2)C(F)(F)c2cc(-c4ccc5nc([C@@H]6[C@H]7CC[C@H](C7)N6C(=O)[C@@H](NC(=O)OC)C(C)C)[nH]c5c4)ccc2-3)[nH]1)C(C)C [Ledipasvir (GS5885)] | 80.34 | –
24 | COCCOC(=O)C1=C(C)NC(C)=C(C(=O)OC/C=C/c2ccccc2)C1c1cccc([N+](=O)[O-])c1 (stereo not drawn) [Cilnidipine] | 69.63 | –
25 | CCN1CCCC1CNC(=O)c1cc(S(=O)(=O)CC)c(N)cc1OC (stereo not drawn) [Amisulpride] | 77.41 | –
26 | N=C(N)NC(=O)c1nc(Cl)c(N)nc1N [Amiloride HCl] | 66.53 | –
27 | CCCCCCOC(=O)NC(=N)c1ccc(NCc2nc3cc(C(=O)N(CCC(=O)OCC)c4ccccn4)ccc3n2C)cc1 [Dabigatran Etexilate] | 102 | –
28 | CCOC(=O)[C@H](CCc1ccccc1)N[C@H]1CCc2ccccc2N(CC(=O)O)C1=O [Benazepril HCl] | 72.74 | –
29 | CCCCCCNC(=O)n1cc(F)c(=O)[nH]c1=O [Carmofur] | 24.45 | –
30 | NC(N)=Nc1nc(CSCCC(N)=NS(N)(=O)=O)cs1 [Famotidine] | 119.6 | –
31 | COc1cccc2c1C(=O)c1c(O)c3c(c(O)c1C2=O)C[C@@](O)(C(=O)CO)C[C@@H]3O[C@H]1C[C@H](N)[C@@H](O)[C@H](C)O1 [Epirubicin HCl] | 10.44 | –
32 | CO[C@H]1/C=C/O[C@@]2(C)Oc3c(C)c(O)c4c(c3C2=O)C2=NC3(CCN(CC(C)C)CC3)NC2=C(NC(=O)/C(C)=C\C=C\[C@H](C)[C@H](O)[C@@H](C)[C@@H](O)[C@@H](C)[C@H](OC(C)=O)[C@@H]1C)C4=O [Rifabutin] | 70.34 | –
33 | N#CC[C@H](C1CCCC1)n1cc(-c2ncnc3[nH]ccc23)cn1 [Ruxolitinib (INCB018424)] | – | 77.41
34 | Cc1c(OCC(F)(F)F)ccnc1C[S+]([O-])c1nc2ccccc2[nH]1 (stereo not drawn) [Lansoprazole] | 63.4 | –
35 | O=c1cc[nH]c(=O)[nH]1 [Uracil] | 73.94 | –
36 | Nc1ncnc2c1ncn2[C@@H]1O[C@H](CO)[C@@H](O)[C@@H]1O [Vidarabine] | 74.15 | –
37 | Cc1c(-c2ccnn2C)cc(C(=O)NCc2ccc(S(C)(=O)=O)cn2)c(=O)n1-c1cccc(C(F)(F)F)c1 [Alvelestat (AZD9668)] | 116.2 | –
38 | CN(C)CCc1c[nH]c2ccc(CS(=O)(=O)N3CCCC3)cc12 [Almotriptan Malate] | 113.8 | –
39 | Cn1c(=O)cc(N2CCC[C@@H](N)C2)n(Cc2cc(F)ccc2C#N)c1=O [Trelagliptin] | 63.68 | –
40 | C[C@@H](O)[C@H]1C(=O)N2C(C(=O)O)=C(S[C@@H]3CN[C@H](C(=O)N(C)C)C3)[C@H](C)[C@H]12 [Meropenem] | 72.74 | –
41 | CN(C)CCOc1ccc(/C(=C(/CCCl)c2ccccc2)c2ccccc2)cc1 [Toremifene Citrate] | 34.75 | –
42 | COCCCN1CCC(NC(=O)c2cc(Cl)c(N)c3c2OCC3)CC1 [Prucalopride] | 129.1 | –

Row | SMILES | Relative cell viability (%) [%] | Relative cell viability (%) (Relative cell viability (%)) [%]
43 | CN1C(C(=O)Nc2ccccn2)=C(O)c2sc(Cl)cc2S1(=O)=O [Lornoxicam] | 228.6 | –
44 | C[N+](C)(C)CC(O)CC(=O)[O-] (racemic) [DL-Carnitine HCl] | 125.5 | –
45 | COc1ccc(C[C@@H]2c3cc(OC)c(OC)cc3CC[N@+]2(C)CCC(=O)OCCCCCOC(=O)CC[N@@+]2(C)CCc3cc(OC)c(OC)cc3[C@H]2Cc2ccc(OC)c(OC)c2)cc1OC [Atracurium Besylate] | – | 91.95
46 | CCOC(=O)[C@H](CCc1ccccc1)N[C@H]1CS[C@H](c2cccs2)CN(CC(=O)O)C1=O [Temocapril HCl] | 117.3 | –
47 | CCN1CCN(Cc2ccc(Nc3ncc(F)c(-c4cc(F)c5nc(C)n(C(C)C)c5c4)n3)nc2)CC1 [LY2835219] | 5.983 | –
48 | Cc1cccc(-c2nn3c(c2-c2ccnc4ccc(C(N)=O)cc24)CCC3)n1 [LY2157299] | 106.7 | –
49 | CNC(=O)c1cc(Oc2ccc(NC(=O)Nc3ccc(Cl)c(C(F)(F)F)c3)cc2)ccn1 [Sorafenib] | 21.37 | –
50 | CCN1CCC[C@H]1CNC(=O)c1cc(S(N)(=O)=O)ccc1OC [Levosulpiride] | 114.3 | –
51 | CN1[C@@H]2CC[C@H]1C[C@@H](OC(=O)c1c[nH]c3ccccc13)C2 [Tropisetron] | 115.5 | –
52 | Cc1c(O)cccc1C(=O)N[C@@H](CSc1ccccc1)[C@H](O)CN1C[C@H]2CCCC[C@H]2C[C@H]1C(=O)NC(C)(C)C [Nelfinavir Mesylate] | 23.94 | –
53 | CO[C@H]1/C=C/O[C@@]2(C)Oc3c(C)c(O)c4c(O)c(c(/C=N/N5CCN(C6CCCC6)CC5)c(O)c4c3C2=O)NC(=O)/C(C)=C\C=C\[C@H](C)[C@H](O)[C@@H](C)[C@@H](O)[C@@H](C)[C@H](OC(C)=O)[C@@H]1C [Rifapentine] | 69.07 | –
54 | O=C(O)c1cc(-c2ccccc2)nc2ccccc12 [Cinchophen] | 89.39 | –
55 | COc1ccc2c(c1)c(CC(=O)OCC(=O)O)c(C)n2C(=O)c1ccc(Cl)cc1 [Acemetacin] | 81.07 | –
56 | C[C@@H]1CC(=O)NN=C1c1ccc(NN=C(C#N)C#N)cc1 [Levosimendan] | 103.1 | –
57 | Oc1c(Br)cc(Br)c2cccnc12 [Broxyquinoline] | 83.94 | –
58 | CN(C)[C@@H]1C(O)=C(C(N)=O)C(=O)[C@@]2(O)C(O)=C3C(=O)c4c(O)ccc(Cl)c4[C@@H](O)[C@H]3C[C@@H]12 [Demeclocycline HCl] | 74.85 | –
59 | Oc1cc(O)c(Cl)cn1 [Gimeracil] | 117.6 | –
60 | CC(N)C12CC3CC(CC(C3)C1)C2 (stereo not drawn) [Rimantadine] | 127.5 | –
61 | C[C@H]1C[C@@H]2[C@H]([C@@H](O)C[C@@]3(C)[C@H]2CC[C@]3(O)C(=O)CO)[C@@]2(C)C=CC(=O)C=C12 [Methylprednisolone] | 42.37 | –
62 | CC1=C(/C=C/C(C)=C/C=C/C(C)=C\C(=O)O)C(C)(C)CCC1 [Isotretinoin] | 60.28 | –
63 | C=CC(=O)Nc1cc(Nc2nccc(-c3cn(C)c4ccccc34)n2)c(OC)cc1N(C)CCN(C)C [AZD9291] | 0.8547 | –
